Legend:
[1] = molecular target: human inducible NO-synthase (Homo sapiens, UniProt P35228); assay: Measurement of inducible NO-synthase activity ([3H]arginine conversion); format: biochemical; details: crude cytosolic fraction containing human inducible NO-synthase, arginine 0.1 μM, 45 to 60 min at 37° C.; for IC50: read-out: Inhibition of iNOS activity [measured as −logIC50 (mol/l)] (converted)
Protocol: Measurement of Inducible NO-Synthase Activity
The assay is performed in 96-well microtiter F-plates (Greiner, Frickenhausen, FRG) in a total volume of 100 μl in the presence of 100 nM calmodulin, 226 μM CaCl2, 477 μM MgCl2, 5 μM flavin-adenine-dinucleotide (FAD), 5 μM flavin mononucleotide (FMN), 0.1 mM NADPH, 7 mM glutathione, 10 μM BH4 and 100 mM HEPES pH 7.2. Arginine concentrations are 0.1 μM for enzyme inhibition experiments. 150000 dpm of [^3H]arginine are added to the assay mixture. Enzyme reaction is started by the addition of 4 μg of a crude cytosolic fraction containing human inducible NO-synthase and the reaction mixture is incubated for 45 to 60 min at 37° C. Enzyme reaction is stopped by adding 10 μl of 2M MES-buffer pH 5.0. 50 μl of the incubation mixture are transferred into a MADP N65 filtration microtiter plate (Millipore, Eschborn, FRG) containing already 50 μl of AG-50W-X8 cation exchange resin (Biorad, München, FRG). The resin in the Na loaded form is pre-equilibrated in water and 70 μl (corresponding to 50 μl dry beads) are pipetted under heavy stirring with a 8 channel pipette into the filtration plate. After pipetting 50 μl of the enzyme reaction mixture onto the filtration plates, the plates are placed on a filtration manifold (Porvair, Shepperton, UK) and the flow through is collected in Pico scintillation plates (Packard, Meriden, Conn.). […] The total flow through of 125 μl is mixed with 175 μl of Microscint-40 scintillation cocktail (Packard) and the scintillation plate is sealed with TopSeal P-foil (Packard). Scintillation plates are counted in a szintillation counter.
For the measurement of inducible NO-synthase-inhibiting potencies of compounds increasing concentrations of inhibitors were included into the incubation mixture. IC50-values were calculated from the percent inhibition at given concentrations by nonlinear least square fitting.

IC50 [1] [nM]	melting point [°C]	SMILES	Inhibition of iNOS activity [measured as −logIC50 (mol/l)] [1]
38.9		COc1ccnc(CCc2nc3cc(-c4ccccc4)cnc3[nH]2)c1 [compound 10, 2-[2-(4-Methoxypyridin-2-yl)ethyl]-6-phenyl-3H-imidazo[4,5-b]pyridine]	
69.2		COc1ccnc(CCc2nc3cc(C)cnc3[nH]2)c1 [compound 11, 2-[2-(4-Methoxypyridin-2-yl)ethyl]-6-methyl-3H-imidazo[4,5-b]pyridine]	
34.7		COc1ccnc(CCc2nc3cc(-c4ccc(C)cc4)cnc3[nH]2)c1 [compound 25, 2-[2-(4-Methoxypyridin-2-yl)ethyl]-6-p-tolyl-3H-imidazo[4,5-b]pyridine]	
89.1		COc1ccnc(CCc2nc3cc(-c4cccnc4)cnc3[nH]2)c1 [compound 26, 2-[2-(4-Methoxypyridin-2-yl)ethyl]-6-(pyridin-3-yl)-3H-imidazo-[4,5-b]pyridine]	
61.7	117 to 119	COc1ccnc(CCc2nc3cc(-c4ccc(N)cc4)cnc3[nH]2)c1 [compound 27, 2-[2-(4-Methoxypyridin-2-yl)ethyl]-6-(4-aminophenyl)-3H-imidazo-[4,5-b]pyridine]	
44.7	206 to 208	COc1ccnc(CCc2nc3cc(-c4ccc(O)cc4)cnc3[nH]2)c1 [compound 28, 2-[2-(4-Methoxypyridin-2-yl)ethyl]-6-(4-hydroxyphenyl)-3H-imidazo-[4,5-b]pyridine]	
38	176 to 178	COc1ccnc(CCc2nc3cc(-c4ccc(N(C)C)cc4)cnc3[nH]2)c1 [compound 29, 2-[2-(4-Methoxypyridin-2-yl)ethyl]-6-(4-N,N-dimethylaminophenyl)-3H-imidazo[4,5-b]pyridine]	
75.9	185 to 186	COc1ccnc(CCc2nc3cc(-c4ccc(OC)c(OC)c4)cnc3[nH]2)c1 [compound 31, 2-[2-(4-Methoxypyridin-2-yl)ethyl]-6-(3,4-dimethoxyphenyl)-3H-imidazo[4,5-b]pyridine]	
33.9	241 to 242	COc1ccnc(CCc2nc3cc(-c4ccc(C#N)cc4)cnc3[nH]2)c1 [compound 34, 2-[2-(4-Methoxypyridin-2-yl)ethyl]-6-(4-cyanophenyl)-3H-imidazo[4,5-b]pyridine]	
67.6	220 to 221	COc1ccnc(CCc2nc3cc(-c4ccc(NC(C)=O)cc4)cnc3[nH]2)c1 [compound 36, N-(4-{2-[2-(4-Methoxypyridin-2-yl)ethyl]-3H-imidazo[4,5-b]pyridin-6-yl}phenyl)-acetamide]	

The remaining lines, values behind:

SMILES	IC50 [1] [nM]	melting point [°C]	Inhibition of iNOS activity [measured as −logIC50 (mol/l)] [1]
COc1ccnc(CCc2nc3cc(I)cnc3[nH]2)c1 [compound 7, 2-[2-(4-Methoxypyridin-2-yl)ethyl]-6-iodo-3H-imidazo[4,5-b]pyridine]	32.4		
COc1ccnc(CCc2nc3cc(C(F)(F)F)cnc3[nH]2)c1 [compound 9, 2-[2-(4-Methoxypyridin-2-yl)ethyl]-6-trifluoromethyl-3H-imidazo[4,5-b]pyridine]	89.1		
COc1ccnc(CCc2nc3cc(CCc4ccccc4)cnc3[nH]2)c1 [compound 14, 2-[2-(4-Methoxypyridin-2-yl)ethyl]-6-(2-phenylethyl)-3H-imidazo[4,5-b]pyridine]	45.7		
COc1ccnc(CCc2nc3cc(-c4ccc(Cl)c(Cl)c4)cnc3[nH]2)c1 [compound 15, 2-[2-(4-Methoxypyridin-2-yl)ethyl]-6-(3,4-dichlorphenyl)-3H-imidazo[4,5-b]pyridine]			7.33
COc1ccnc(CCc2nc3cc(-c4ccc(Br)cc4)cnc3[nH]2)c1 [compound 16, 2-[2-(4-Methoxypyridin-2-yl)ethyl]-6-(4-bromphenyl)-3H-imidazo[4,5-b]pyridine]			7.36
COc1ccnc(CCc2nc3cc(-c4ccc(C(F)(F)F)cc4)cnc3[nH]2)c1 [compound 30, 2-[2-(4-Methoxypyridin-2-yl)ethyl]-6-(4-trifluormethylphenyl)-3H-imidazo[4,5-b]pyridine]			7.55
COc1ccnc(CCc2nc3cc(-c4ccc(OCc5ccccc5)cc4)cnc3[nH]2)c1 [compound 32, 2-[2-(4-Methoxypyridin-2-yl)ethyl]-6-(4-benzyloxyphenyl)-3H-imidazo[4,5-b]pyridine]	45.7	161 to 162	
COc1ccnc(CCc2nc3cc(-c4ccc(OCc5ccccc5)c(F)c4)cnc3[nH]2)c1 [compound 33, 2-[2-(4-Methoxypyridin-2-yl)ethyl]-(4-benzyloxy-3-fluorophenyl)-3H-imidazo[4,5-b]pyridine]			7.29
COc1ccnc(CCc2nc3cc(-c4ccc(NS(=O)(=O)c5ccccc5)cc4)cnc3[nH]2)c1 [compound 37, N-(4-{2-[2-(4-Methoxypyridin-2-yl)ethyl]-3H-imidazo[4,5-b]pyridin-6-yl}phenyl)-benzenesulfonamide]	63.1	251 to 253	
